What was measured:
Type in all cases: in vivo
[1] = test system: Euschistus heros (Neotropical Brown Stink Bug); assay: Example B2: Euschistus heros (neotropical brown stink bug), soybean leaves sprayed, N2 nymphs; details: 120 h, application rate of 200 ppm, 5 days after infestation, N2 nymphs, read-out: control in at least one of the two categories (mortality or growth inhibition)
Experimental: Soybean leaves on agar in 24-well microtiter plates were sprayed with aqueous test solutions prepared from 10′000 ppm DMSO stock solutions. After drying the leaves were infested with N2 nymphs. The samples were assessed for mortality and growth inhibition in comparison to untreated samples 5 days after infestation.

[2] = test system: Diabrotica Balteata (Corn Root Worm); assay: Example B1: Diabrotica balteata (corn root worm), maize sprouts sprayed, L2 larvae; details: 96 h, application rate of 200 ppm, 4 days after infestation, L2 larvae, read-out: control in at least one of the two categories (mortality or growth inhibition)
Summary of the method: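 Maize sprouts on agar were sprayed with aqueous test solutions made from 10′000 ppm DMSO stocks, dried, then infested with 6 to 10 L2 larvae per well. Mortality and growth inhibition were scored against untreated samples 4 days after infestation.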

[3] = test system: Plutella xylostella (Diamond Back Moth); assay: Example B4: Plutella xylostella (diamond back moth), artificial diet, eggs, 24-well; details: 192 h, application rate of 200 ppm, 8 days after infestation, eggs, read-out: control in at least one of the two categories (mortality or growth inhibition)
Experimental: 24-well microtiter plates with artificial diet were treated with aqueous test solutions prepared from 10′000 ppm DMSO stock solutions by pipetting. After drying, Plutella eggs were pipetted through a plastic stencil onto a gel blotting paper and the plate was closed with it. The samples were assessed for mortality and growth inhibition in comparison to untreated samples 8 days after infestation.

[4] = test system: Myzus persicae (Green Peach Aphid); assay: Example B6: Myzus persicae (green peach aphid) intrinsic activity, sucrose solution; details: 120 h, test rate of 12 ppm, 5 days after infestation, intrinsic activity, read-out: mortality
Experimental: Test compounds prepared from 10′000 ppm DMSO stock solutions were applied by pipette into 24-well microtiter plates and mixed with sucrose solution. The plates were closed with a stretched Parafilm. A plastic stencil with 24 holes was placed onto the plate and infested pea seedlings were placed directly on the Parafilm. The infested plate was closed with a gel blotting paper and another plastic stencil and then turned upside down. The samples were assessed for mortality 5 days after infestation.

[5] = test system: Chilo suppressalis (Striped Rice Stemborer); assay: Example B3: Chilo suppressalis (striped rice stemborer), artificial diet, L2 larvae; details: 144 h, application rate of 200 ppm, 6 days after infestation, L2 larvae, read-out: control in at least one of the three categories (mortality, anti-feedant effect, or growth inhibition)
Summary of the method: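 Artificial diet treated with aqueous dilutions of DMSO stocks (10'000 ppm stock), dried, then infested with 6-8 L2 larvae per well. Mortality, anti-feeding and growth inhibition scored against untreated samples 6 days after infestation. Control counted when any category exceeds untreated.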

[6] = test system: Spodoptera littoralis (Egyptian Cotton Leaf Worm); assay: Example B7: Spodoptera littoralis (Egyptian cotton leaf worm), cotton leaf discs sprayed, L1 larvae; details: foliar, 72 h, application rate of 200 ppm, 3 days after infestation, L1 larvae, read-out: control in at least one of the three categories (mortality, anti-feedant effect, or growth inhibition)
Summary of the method: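 Leaf discs on agar; spray, aqueous dilution of 10′000 ppm DMSO stock; dry; 5 L1 larvae/disc. Read at 3 d post-infestation: mortality, antifeedant, growth inhibition vs untreated. Control = ≥1 category above untreated.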

COc1nc(N(CC2CC2)C(C)c2ncnn2-c2ncccn2)c2cc(C(F)(F)F)cc(Cl)c2n1 (stereo not shown) [P.36, 8-chloro-N-(cyclopropylmethyl)-2-methoxy-N-[1-(2-pyrimidin-2-yl-1,2,4-triazol-3-yl)ethyl]-6-(trifluoromethyl)quinazolin-4-amine]
≥ 80%: percent control (mortality or growth inhibition) at 200 ppm [1] | percent control (mortality or growth inhibition) at 200 ppm [2]

CC(Nc1ncnc2c(Br)cc(OC(F)(F)F)cc12)c1ncnn1-c1ncccn1 (stereo not shown) [P.229, 8-bromo-N-[1-(2-pyrimidin-2-yl-1,2,4-triazol-3-yl)ethyl]-6-(trifluoromethoxy)quinazo-line-4-amine]
≥ 80%: percent control (mortality or growth inhibition) at 200 ppm [3] | mortality at 12 ppm [4] | percent control (mortality or growth inhibition) at 200 ppm [2] | percent control (mortality, anti-feedant effect or growth inhibition) at 200 ppm [5] | percent control (mortality, anti-feedant effect or growth inhibition) at 200 ppm [6]

CC(c1ncnn1-c1ccc(C#N)cn1)N(C)c1ncnc2c(OC(F)F)cc(Br)cc12 (stereo not shown) [P.230, 6-[5-[1-[[6-bromo-8-(difluoromethoxy)quinazo-lin-4-yl]-methyl-amino]ethyl]-1,2,4-triazol-1-yl]pyridine-3-carbonitrile]
≥ 80%: percent control (mortality or growth inhibition) at 200 ppm [3] | mortality at 12 ppm [4] | percent control (mortality or growth inhibition) at 200 ppm [2] | percent control (mortality, anti-feedant effect or growth inhibition) at 200 ppm [5] | percent control (mortality, anti-feedant effect or growth inhibition) at 200 ppm [6]

C[C@H](Nc1ncnc2c(C(F)(F)F)cc(I)cc12)c1nccnc1-c1ccc(C#N)cn1 [P.162, 6-[3-[(1S)-1-[[6-iodo-8-(trifluoromethyl)quinazolin-4-yl]amino]ethyl]pyrazin-2-yl]pyridine-3-carbonitrile]
≥ 80%: percent control (mortality or growth inhibition) at 200 ppm [3] | mortality at 12 ppm [4] | percent control (mortality or growth inhibition) at 200 ppm [2] | percent control (mortality, anti-feedant effect or growth inhibition) at 200 ppm [5] | percent control (mortality, anti-feedant effect or growth inhibition) at 200 ppm [6]

CC(c1ncnn1-c1ncc(Br)cn1)N(C)c1ncnc2c(C(F)(F)F)cc(C(F)(F)F)cc12 (stereo not shown) [P.89, N-[1-[2-(5-bromopyrimidin-2-yl)-1,2,4-triazol-3-yl]ethyl]-N-methyl-6,8-bis(trifluoromethyl)quina-zolin-4-amine]
≥ 80%: percent control (mortality or growth inhibition) at 200 ppm [3] | percent control (mortality or growth inhibition) at 200 ppm [1] | percent control (mortality or growth inhibition) at 200 ppm [2] | percent control (mortality, anti-feedant effect or growth inhibition) at 200 ppm [5]

Cc1cnc(-c2ccc(C#N)cn2)c([C@H](C)N(C)c2ncnc3c(C(F)(F)F)cc(C(F)(F)F)cc23)n1 [P.175, 6-[3-[(1S)-1-[[6,8-bis(trifluoromethyl)quina-zolin-4-yl]-methyl-amino]ethyl]-5-methyl-pyraizn-2-yl]pyridine-3-carbonitrile]
≥ 80%: percent control (mortality or growth inhibition) at 200 ppm [3] | percent control (mortality or growth inhibition) at 200 ppm [1] | percent control (mortality or growth inhibition) at 200 ppm [2] | percent control (mortality, anti-feedant effect or growth inhibition) at 200 ppm [5]

C[C@H](Nc1ncnc2c(Cl)cc(C(F)(F)F)cc12)c1ncnn1-c1ncccn1 [P.18, 8-chloro-N-[(1S)-1-(2-pyrimidin-2-yl-1,2,4-triazol-3-yl)ethyl]-6-(trifluoromethyl)quinazolin-4-amine]
≥ 80%: percent control (mortality or growth inhibition) at 200 ppm [3] | mortality at 12 ppm [4] | percent control (mortality or growth inhibition) at 200 ppm [2] | percent control (mortality, anti-feedant effect or growth inhibition) at 200 ppm [5] | percent control (mortality, anti-feedant effect or growth inhibition) at 200 ppm [6]

CC(Nc1ncnc2c(OC(F)F)cc(Br)cc12)c1ncnn1-c1ncccn1 (stereo not shown) [P.243, 6-bromo-8-(difluoromethoxy)-N-[1-(2-pyrimidin-2-yl-1,2,4-triazol-3-yl)ethyl]quinazolin-4-amine]
≥ 80%: percent control (mortality or growth inhibition) at 200 ppm [3] | mortality at 12 ppm [4] | percent control (mortality or growth inhibition) at 200 ppm [2] | percent control (mortality, anti-feedant effect or growth inhibition) at 200 ppm [5] | percent control (mortality, anti-feedant effect or growth inhibition) at 200 ppm [6]

CC(c1nccnc1-c1ncccn1)N(C)c1ncnc2c(C(F)(F)F)cc(Br)cc12 (stereo not shown) [P.98, 6-bromo-N-methyl-N-[1-(3-pyrimidin-2-ylpyrazin-2-yl)ethyl]-8-(trifluoromethyl)quinazolin-4-amine]
≥ 80%: percent control (mortality or growth inhibition) at 200 ppm [3] | mortality at 12 ppm [4] | percent control (mortality or growth inhibition) at 200 ppm [2] | percent control (mortality, anti-feedant effect or growth inhibition) at 200 ppm [5] | percent control (mortality, anti-feedant effect or growth inhibition) at 200 ppm [6]

C[C@H](Nc1ncnc2c(C(F)(F)F)cc(Cl)cc12)c1ncnn1-c1ccc(C#N)cn1 [P.22, 6-[5-[(1S)-1-[[6-chloro-8-(trifluoromethyl)quinazolin-4-yl]amino]ethyl]-1,2,4-triazol-1-yl]pyridine-3-carbonitrile]
≥ 80%: percent control (mortality or growth inhibition) at 200 ppm [3] | mortality at 12 ppm [4] | percent control (mortality or growth inhibition) at 200 ppm [2] | percent control (mortality, anti-feedant effect or growth inhibition) at 200 ppm [5] | percent control (mortality, anti-feedant effect or growth inhibition) at 200 ppm [6]

CC(Nc1ncnc2c(OC(F)F)cc(Br)cc12)c1nccnc1-c1ncccn1 (stereo not shown) [P.32, 6-bromo-8-(difluoromethoxy)-N-[1-(3-pyrimidin-2-ylpyrazin-2-yl)ethyl]quinazolin-4-amine]
≥ 80%: percent control (mortality or growth inhibition) at 200 ppm [3] | mortality at 12 ppm [4] | percent control (mortality or growth inhibition) at 200 ppm [2] | percent control (mortality, anti-feedant effect or growth inhibition) at 200 ppm [5] | percent control (mortality, anti-feedant effect or growth inhibition) at 200 ppm [6]

CC(Nc1ncnc2c(Br)cc(Cl)cc12)c1nccnc1-c1ncccn1 (stereo not shown) [P.183, 8-bromo-6-chloro-N-[1-(3-pyrimidin-2-ylpyrazin-2-yl)ethyl]quinazolin-4-amine]
≥ 80%: percent control (mortality or growth inhibition) at 200 ppm [3] | mortality at 12 ppm [4] | percent control (mortality or growth inhibition) at 200 ppm [2] | percent control (mortality, anti-feedant effect or growth inhibition) at 200 ppm [5] | percent control (mortality, anti-feedant effect or growth inhibition) at 200 ppm [6]

CC(Nc1ncnc2c(Cl)cc(C(F)(F)F)cc12)c1ncnn1-c1ncccn1 (stereo not shown) [P.43, 8-chloro-N-[1-(2-pyrimidin-2-yl-1,2,4-triazol-3-yl)ethyl]-6-(trifluoromethyl)quinazolin-4-amine]
≥ 80%: percent control (mortality or growth inhibition) at 200 ppm [3] | percent control (mortality or growth inhibition) at 200 ppm [1] | percent control (mortality or growth inhibition) at 200 ppm [2] | percent control (mortality, anti-feedant effect or growth inhibition) at 200 ppm [5]

CC(c1nccnc1-n1nccn1)N(CC1CC1)c1ncnc2c(C(F)(F)F)cc(C(F)(F)F)cc12 (stereo not shown) [P.75, N-(cyclopropylmethyl)-N-[1-[3-(triazol-2-yl)pyrazin-2-yl]ethyl]-6,8-bis(trifluoromethyl)quina-zolin-4-amine]
≥ 80%: percent control (mortality or growth inhibition) at 200 ppm [3] | percent control (mortality or growth inhibition) at 200 ppm [1] | percent control (mortality or growth inhibition) at 200 ppm [2] | percent control (mortality, anti-feedant effect or growth inhibition) at 200 ppm [5]

CC(c1nccnc1-n1nccn1)N(CC1CC1)c1ncnc2c(C(F)(F)F)cc(Br)cc12 (stereo not shown) [P.78, 6-bromo-N-(cyclopropylmethyl)-N-[1-[3-(triazol-2-yl)pyrazin-2-yl]ethyl]-8-(trifluoromethyl)quinazolin-4-amine]
≥ 80%: percent control (mortality or growth inhibition) at 200 ppm [3] | percent control (mortality or growth inhibition) at 200 ppm [1] | percent control (mortality or growth inhibition) at 200 ppm [2] | percent control (mortality, anti-feedant effect or growth inhibition) at 200 ppm [5]
